Measured values as given in ChEMBL document CHEMBL1201862, “PubChem BioAssay data set” (2004).
Activity calls are given as the source filed them.

What was measured:
HeLa = assay: ATP-based viability loss in HeLa cells – cell-based, CellTiter-Glo luminescence, cherry-pick samples, cytotoxicity control for MITF activator project, dose response (AID 540259); assay type: functional; details: Homo sapiens
INS1 = assay: INS-1E survival protection against cytokine death – cell-based, luminescence, retest, dose response (AID 449756); assay type: functional; details: Rattus norvegicus;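 further: cell death triggered by IL-1 beta plus TNF-alpha plus IFN-gamma mixture; protective hits raise ATP signal compared with cytokine alone wells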
[1] = target: T1, Carboxy-terminal domain RNA polymerase II polypeptide A small phosphatase 1 (Homo sapiens, UniProt Q9GZU7); assay: CTDSP1 inhibitors, concentration-response, biochemical, absorbance readout, ultra-high-throughput screen actives (AID 540297); assay type: functional
T1 sequence (Q9GZU7 whole entry): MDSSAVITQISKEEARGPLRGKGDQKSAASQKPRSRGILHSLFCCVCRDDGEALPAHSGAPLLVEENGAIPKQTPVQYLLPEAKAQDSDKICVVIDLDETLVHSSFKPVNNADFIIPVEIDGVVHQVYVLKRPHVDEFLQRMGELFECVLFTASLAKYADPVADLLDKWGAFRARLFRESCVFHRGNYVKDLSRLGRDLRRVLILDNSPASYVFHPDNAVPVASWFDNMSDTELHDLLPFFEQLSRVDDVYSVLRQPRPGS

Protein Wnt-3a = Protein Wnt-3a (Mus musculus, UniProt P27467); assay: antagonism of Wnt3a pathway luciferase reporter – Wnt-LIGHT cells, luminescence, selectivity assay for Gli-SUFU antagonist project, dose response (AID 651570); assay type: functional; details: read-out: IC50_Mean;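 further: Wnt-LIGHT reporter cells stimulated with conditioned medium from Wnt3a-producing cells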
Chain of Protein Wnt-3a (P27467 whole entry): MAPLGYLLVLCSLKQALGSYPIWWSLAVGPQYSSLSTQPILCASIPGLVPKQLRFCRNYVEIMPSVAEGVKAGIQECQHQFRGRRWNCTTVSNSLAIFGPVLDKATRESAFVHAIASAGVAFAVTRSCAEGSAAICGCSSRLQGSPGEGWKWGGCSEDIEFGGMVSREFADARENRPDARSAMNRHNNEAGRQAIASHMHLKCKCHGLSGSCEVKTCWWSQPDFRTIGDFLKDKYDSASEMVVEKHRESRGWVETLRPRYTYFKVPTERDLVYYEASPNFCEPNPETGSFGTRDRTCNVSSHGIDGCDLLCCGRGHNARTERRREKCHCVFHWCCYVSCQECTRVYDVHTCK

[2] = Luminescence Cell-Based Dose Retest to Confirm Inhibitors of Cancer Stem Cells. [Related pubchem assays (depositor defined):AID2717, AID2721]; assay type: functional; details: Homo sapiens
[3] = target: Voltage-gated inwardly rectifying potassium channel KCNH2 (Homo sapiens, UniProt Q12809); details: Potency;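 further: confirmatory quantitative high-throughput screen measuring inhibition of hERG channel activity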
Chain of Voltage-gated inwardly rectifying potassium channel KCNH2 (Q12809 whole entry): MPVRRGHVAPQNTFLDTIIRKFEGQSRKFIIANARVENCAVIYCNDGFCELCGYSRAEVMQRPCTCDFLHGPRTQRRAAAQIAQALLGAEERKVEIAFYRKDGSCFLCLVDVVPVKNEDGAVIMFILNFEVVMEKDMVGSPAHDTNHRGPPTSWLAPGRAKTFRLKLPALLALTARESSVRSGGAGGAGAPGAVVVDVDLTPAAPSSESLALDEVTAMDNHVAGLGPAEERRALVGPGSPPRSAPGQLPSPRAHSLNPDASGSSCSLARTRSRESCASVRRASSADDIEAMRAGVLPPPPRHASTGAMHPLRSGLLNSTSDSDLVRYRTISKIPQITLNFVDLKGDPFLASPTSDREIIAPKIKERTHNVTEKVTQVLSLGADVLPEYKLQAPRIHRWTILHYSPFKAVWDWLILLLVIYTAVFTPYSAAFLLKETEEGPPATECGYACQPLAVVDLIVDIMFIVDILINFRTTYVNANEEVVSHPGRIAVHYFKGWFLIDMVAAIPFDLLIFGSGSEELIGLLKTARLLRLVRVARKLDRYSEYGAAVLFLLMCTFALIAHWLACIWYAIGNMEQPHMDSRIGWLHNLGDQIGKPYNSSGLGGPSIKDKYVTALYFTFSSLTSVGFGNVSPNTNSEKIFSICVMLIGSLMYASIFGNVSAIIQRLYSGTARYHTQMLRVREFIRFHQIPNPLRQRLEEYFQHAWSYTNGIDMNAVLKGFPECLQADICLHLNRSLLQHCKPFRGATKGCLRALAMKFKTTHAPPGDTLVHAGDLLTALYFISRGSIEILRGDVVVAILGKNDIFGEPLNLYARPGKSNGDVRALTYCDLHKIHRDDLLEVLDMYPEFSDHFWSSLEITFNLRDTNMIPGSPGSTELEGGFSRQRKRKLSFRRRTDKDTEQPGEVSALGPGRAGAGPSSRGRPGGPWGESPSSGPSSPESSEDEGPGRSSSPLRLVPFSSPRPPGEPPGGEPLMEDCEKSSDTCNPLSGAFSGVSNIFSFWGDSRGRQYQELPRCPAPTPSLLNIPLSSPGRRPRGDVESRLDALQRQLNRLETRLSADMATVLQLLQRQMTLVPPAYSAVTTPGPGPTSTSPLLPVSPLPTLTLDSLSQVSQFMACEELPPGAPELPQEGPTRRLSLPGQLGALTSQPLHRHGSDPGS

[4] = target: Dual specificity tyrosine-phosphorylation-regulated kinase 1A (Rattus norvegicus, UniProt Q63470); assay type: biochemical, Homo sapiens
[5] = target: Glyceraldehyde-3-phosphate dehydrogenase (Homo sapiens, UniProt P04406)
Chain of Glyceraldehyde-3-phosphate dehydrogenase (P04406 whole entry): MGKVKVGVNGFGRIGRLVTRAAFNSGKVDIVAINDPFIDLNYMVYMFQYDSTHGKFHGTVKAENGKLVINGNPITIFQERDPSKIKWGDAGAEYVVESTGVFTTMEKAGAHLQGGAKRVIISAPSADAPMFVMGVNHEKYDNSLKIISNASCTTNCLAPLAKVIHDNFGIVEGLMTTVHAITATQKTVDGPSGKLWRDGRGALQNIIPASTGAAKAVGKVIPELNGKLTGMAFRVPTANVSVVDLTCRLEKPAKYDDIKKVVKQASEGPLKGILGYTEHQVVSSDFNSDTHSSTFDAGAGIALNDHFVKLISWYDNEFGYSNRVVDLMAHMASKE

[6] = target: T2, Alkaline phosphatase, tissue-nonspecific isozyme (Homo sapiens, UniProt P05186); assay: potency against alkaline phosphatase TNAP – biochemical, luminescent, dose response, SAR follow-up (AID 1056)
T2 sequence (P05186 whole entry): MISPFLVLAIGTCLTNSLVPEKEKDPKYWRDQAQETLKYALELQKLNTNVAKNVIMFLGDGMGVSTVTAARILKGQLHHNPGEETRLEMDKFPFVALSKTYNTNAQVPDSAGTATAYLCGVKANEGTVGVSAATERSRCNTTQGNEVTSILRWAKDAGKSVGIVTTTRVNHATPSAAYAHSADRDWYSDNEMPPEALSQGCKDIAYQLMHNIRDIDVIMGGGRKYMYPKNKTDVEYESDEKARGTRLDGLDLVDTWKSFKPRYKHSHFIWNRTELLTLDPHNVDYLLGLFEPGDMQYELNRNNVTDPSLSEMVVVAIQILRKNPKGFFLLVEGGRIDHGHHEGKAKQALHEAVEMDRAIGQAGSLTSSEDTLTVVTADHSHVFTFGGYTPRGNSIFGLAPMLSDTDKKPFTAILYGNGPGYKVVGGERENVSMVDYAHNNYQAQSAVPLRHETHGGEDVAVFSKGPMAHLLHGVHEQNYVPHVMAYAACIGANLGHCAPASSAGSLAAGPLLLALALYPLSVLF

Aminopeptidase N = target: T3, Aminopeptidase N (Plasmodium falciparum FcB1/Columbia, UniProt O96935); assay: malaria alanyl aminopeptidase activity blockers – biochemical, fluorogenic H-Leu-NHMec substrate, 1536-well (AID 1445); design: species or system Plasmodium falciparum 3D7, 3D7
T3 sequence (O96935 whole entry): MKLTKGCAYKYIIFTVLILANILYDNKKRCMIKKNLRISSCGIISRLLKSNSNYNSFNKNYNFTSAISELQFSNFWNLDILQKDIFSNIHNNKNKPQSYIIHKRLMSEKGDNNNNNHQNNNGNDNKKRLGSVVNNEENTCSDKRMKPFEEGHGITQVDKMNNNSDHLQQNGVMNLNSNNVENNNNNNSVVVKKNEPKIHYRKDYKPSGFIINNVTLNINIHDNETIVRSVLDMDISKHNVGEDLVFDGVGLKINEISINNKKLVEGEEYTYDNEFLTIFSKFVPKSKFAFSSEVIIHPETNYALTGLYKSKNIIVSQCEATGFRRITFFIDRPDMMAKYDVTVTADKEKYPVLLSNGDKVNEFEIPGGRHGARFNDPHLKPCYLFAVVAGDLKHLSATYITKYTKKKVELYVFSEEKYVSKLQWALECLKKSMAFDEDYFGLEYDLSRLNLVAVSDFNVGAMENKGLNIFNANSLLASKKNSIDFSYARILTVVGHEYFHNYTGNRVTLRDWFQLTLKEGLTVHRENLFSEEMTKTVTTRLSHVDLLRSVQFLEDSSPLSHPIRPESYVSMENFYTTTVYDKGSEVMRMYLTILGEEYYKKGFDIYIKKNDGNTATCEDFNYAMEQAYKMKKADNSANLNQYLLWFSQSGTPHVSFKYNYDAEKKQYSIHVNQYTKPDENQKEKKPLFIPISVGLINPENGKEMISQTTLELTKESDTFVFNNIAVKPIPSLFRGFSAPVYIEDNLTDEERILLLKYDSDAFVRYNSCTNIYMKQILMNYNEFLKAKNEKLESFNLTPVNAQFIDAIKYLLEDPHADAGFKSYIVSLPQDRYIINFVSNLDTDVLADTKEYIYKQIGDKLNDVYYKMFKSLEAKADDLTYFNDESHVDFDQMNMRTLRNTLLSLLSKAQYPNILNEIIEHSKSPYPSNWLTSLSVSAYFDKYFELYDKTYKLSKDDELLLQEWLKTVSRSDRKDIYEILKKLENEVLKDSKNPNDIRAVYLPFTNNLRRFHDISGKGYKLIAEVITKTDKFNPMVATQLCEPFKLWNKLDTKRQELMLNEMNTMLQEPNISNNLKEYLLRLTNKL

[7] = NIH-3T3 fibroblast cytotoxicity, dose response, cytotoxicity control, cell-based, fluorescence, Alamar Blue, secondary assay (AID 2327); assay type: functional;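 further: NIH-3T3 mouse fibroblasts cultured with fluconazole at 8 µg/mL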
[8] = fluconazole-exposed Candida albicans growth modulators – fluorescence, retest, confirmation (AID 2467); assay type: functional, cell-based
[9] = target: Mitogen-activated protein kinase 10 (Homo sapiens, UniProt P53779); assay: Dose response biochemical screening assay for inhibitors of c-Jun N-Terminal Kinase 3 (JNK3). [Related pubchem assays: 746 ]
Chain of Mitogen-activated protein kinase 10 (P53779 whole entry): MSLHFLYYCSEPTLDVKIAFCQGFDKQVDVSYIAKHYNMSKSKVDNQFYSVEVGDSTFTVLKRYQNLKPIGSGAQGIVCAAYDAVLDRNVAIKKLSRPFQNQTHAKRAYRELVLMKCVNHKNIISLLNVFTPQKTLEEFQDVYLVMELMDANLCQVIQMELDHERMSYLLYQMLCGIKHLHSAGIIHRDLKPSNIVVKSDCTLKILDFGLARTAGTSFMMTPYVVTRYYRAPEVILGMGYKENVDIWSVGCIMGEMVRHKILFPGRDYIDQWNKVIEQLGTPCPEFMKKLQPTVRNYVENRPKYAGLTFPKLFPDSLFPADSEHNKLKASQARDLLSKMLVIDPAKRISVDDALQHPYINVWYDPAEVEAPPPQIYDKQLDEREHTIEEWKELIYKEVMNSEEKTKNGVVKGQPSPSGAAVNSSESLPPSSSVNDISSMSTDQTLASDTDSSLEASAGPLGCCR

Cytochrome P450 2C19 = Cytochrome P450 2C19 (Homo sapiens, UniProt P33261); assay: Cytochrome panel assay with activity outcomes. Panel member name: p450-cyp2c19 Compounds with AC50 equal or less than 10 uM are considered active; assay type: functional; details: read-out: AC50
Chain of Cytochrome P450 2C19 (P33261 whole entry): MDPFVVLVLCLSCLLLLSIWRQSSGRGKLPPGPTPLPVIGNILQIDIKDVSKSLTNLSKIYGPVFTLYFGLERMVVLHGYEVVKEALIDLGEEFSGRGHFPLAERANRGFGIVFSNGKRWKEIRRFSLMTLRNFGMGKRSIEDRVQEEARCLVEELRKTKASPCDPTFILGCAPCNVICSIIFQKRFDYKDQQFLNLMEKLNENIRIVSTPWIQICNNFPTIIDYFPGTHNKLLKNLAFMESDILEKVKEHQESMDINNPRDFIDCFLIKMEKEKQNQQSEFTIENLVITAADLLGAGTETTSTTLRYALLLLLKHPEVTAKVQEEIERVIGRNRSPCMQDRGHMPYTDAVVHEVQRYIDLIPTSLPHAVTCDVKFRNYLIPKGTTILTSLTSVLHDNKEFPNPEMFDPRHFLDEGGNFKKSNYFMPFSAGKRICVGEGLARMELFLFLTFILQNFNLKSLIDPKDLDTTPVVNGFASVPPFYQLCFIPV

Cytochrome P450 2D6 = Cytochrome P450 2D6 (Homo sapiens, UniProt P10635);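 further: CYP2D6 member of a cytochrome P450 panel assay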
Chain of Cytochrome P450 2D6 (P10635 whole entry): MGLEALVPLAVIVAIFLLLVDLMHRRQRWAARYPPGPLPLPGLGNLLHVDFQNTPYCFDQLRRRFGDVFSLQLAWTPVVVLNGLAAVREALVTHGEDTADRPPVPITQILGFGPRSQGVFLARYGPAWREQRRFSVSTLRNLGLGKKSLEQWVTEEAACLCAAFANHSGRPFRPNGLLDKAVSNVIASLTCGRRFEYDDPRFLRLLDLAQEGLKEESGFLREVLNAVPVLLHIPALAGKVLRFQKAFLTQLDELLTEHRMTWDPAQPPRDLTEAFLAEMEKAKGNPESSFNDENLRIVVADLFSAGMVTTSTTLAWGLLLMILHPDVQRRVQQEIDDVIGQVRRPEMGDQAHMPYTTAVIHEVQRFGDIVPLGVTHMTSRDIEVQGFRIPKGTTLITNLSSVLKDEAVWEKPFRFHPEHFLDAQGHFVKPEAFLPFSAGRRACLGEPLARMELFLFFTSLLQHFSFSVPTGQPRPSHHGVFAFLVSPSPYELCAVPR

Cytochrome P450 1A2 = target: T4, Cytochrome P450 1A2 (Homo sapiens, UniProt P05177);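 further: PubChem cytochrome P450 panel assay, CYP1A2 panel member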
T4 sequence (P05177 whole entry): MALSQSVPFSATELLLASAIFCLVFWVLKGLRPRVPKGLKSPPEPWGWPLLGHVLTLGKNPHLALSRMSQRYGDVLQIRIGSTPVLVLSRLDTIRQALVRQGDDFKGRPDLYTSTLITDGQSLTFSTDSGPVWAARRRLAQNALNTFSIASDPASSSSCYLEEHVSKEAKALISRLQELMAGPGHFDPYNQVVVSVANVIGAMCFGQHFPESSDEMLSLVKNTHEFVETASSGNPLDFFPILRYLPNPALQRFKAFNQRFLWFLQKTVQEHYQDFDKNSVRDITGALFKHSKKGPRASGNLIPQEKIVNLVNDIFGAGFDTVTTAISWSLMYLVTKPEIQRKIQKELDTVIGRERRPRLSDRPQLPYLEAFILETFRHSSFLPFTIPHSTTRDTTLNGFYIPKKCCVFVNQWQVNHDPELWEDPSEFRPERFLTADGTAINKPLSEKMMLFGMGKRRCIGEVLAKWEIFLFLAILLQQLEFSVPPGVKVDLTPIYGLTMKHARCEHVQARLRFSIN

Cytochrome P450 3A4 = Cytochrome P450 3A4 (Homo sapiens, UniProt P08684);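 further: CYP3A4 tested as one member of a cytochrome P450 panel screen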
Chain of Cytochrome P450 3A4 (P08684 whole entry): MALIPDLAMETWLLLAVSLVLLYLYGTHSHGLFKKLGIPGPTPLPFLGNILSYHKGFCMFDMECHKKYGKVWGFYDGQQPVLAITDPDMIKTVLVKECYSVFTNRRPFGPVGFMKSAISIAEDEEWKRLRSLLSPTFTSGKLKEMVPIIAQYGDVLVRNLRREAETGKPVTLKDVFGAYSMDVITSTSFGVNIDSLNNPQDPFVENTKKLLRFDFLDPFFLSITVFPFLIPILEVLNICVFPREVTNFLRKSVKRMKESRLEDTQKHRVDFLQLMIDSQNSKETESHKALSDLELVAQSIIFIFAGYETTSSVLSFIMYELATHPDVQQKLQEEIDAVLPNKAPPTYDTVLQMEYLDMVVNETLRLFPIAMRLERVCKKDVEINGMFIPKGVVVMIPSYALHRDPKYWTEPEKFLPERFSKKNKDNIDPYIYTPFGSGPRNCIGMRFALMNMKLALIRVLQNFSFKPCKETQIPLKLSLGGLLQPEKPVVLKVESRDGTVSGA

[10] = viability loss in THP-1 monocytes – THP-1 cells, cytotoxicity control for Vif-APOBEC3G degradation inhibitor project, dose response (AID 1117359); assay type: functional; details: THP-1
Vero = assay: cells; assay type: functional; details: Chlorocebus sabaeus
Large T antigen = Large T antigen (Simian virus 40, UniProt P03070); assay type: functional, Betapolyomavirus macacae;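 further: Confirmatory-stage PubChem screen for compounds that inhibit SV40 T antigen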
Chain of Large T antigen (P03070 whole entry): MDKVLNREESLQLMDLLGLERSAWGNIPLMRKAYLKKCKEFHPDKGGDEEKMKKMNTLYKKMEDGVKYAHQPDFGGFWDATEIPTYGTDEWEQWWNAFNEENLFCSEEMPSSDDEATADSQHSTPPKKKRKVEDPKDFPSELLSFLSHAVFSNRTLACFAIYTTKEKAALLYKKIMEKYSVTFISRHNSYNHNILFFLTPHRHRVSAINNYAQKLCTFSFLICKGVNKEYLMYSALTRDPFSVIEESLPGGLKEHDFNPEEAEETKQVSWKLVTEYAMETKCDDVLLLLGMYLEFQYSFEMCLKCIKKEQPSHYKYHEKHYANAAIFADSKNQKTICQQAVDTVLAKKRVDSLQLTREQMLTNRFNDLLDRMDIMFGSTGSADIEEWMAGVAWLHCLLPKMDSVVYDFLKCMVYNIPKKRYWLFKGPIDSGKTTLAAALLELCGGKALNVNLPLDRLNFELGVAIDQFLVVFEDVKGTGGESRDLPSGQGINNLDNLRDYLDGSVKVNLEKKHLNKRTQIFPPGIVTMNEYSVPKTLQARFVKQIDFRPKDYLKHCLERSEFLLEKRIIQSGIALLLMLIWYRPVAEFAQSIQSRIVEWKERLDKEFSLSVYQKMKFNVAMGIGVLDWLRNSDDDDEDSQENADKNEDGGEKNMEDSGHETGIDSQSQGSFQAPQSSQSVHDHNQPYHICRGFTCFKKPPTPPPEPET

[11] = target: T5, Rac GTPase-activating protein 1 (Homo sapiens, UniProt Q9H0H5); assay: blockers of MgcRacGAP-driven Rac1 GTP hydrolysis – biochemical, ADP Hunter fluorescence, primary and confirmatory, confirmation (AID 624330); assay type: functional
T5 sequence (Q9H0H5 whole entry): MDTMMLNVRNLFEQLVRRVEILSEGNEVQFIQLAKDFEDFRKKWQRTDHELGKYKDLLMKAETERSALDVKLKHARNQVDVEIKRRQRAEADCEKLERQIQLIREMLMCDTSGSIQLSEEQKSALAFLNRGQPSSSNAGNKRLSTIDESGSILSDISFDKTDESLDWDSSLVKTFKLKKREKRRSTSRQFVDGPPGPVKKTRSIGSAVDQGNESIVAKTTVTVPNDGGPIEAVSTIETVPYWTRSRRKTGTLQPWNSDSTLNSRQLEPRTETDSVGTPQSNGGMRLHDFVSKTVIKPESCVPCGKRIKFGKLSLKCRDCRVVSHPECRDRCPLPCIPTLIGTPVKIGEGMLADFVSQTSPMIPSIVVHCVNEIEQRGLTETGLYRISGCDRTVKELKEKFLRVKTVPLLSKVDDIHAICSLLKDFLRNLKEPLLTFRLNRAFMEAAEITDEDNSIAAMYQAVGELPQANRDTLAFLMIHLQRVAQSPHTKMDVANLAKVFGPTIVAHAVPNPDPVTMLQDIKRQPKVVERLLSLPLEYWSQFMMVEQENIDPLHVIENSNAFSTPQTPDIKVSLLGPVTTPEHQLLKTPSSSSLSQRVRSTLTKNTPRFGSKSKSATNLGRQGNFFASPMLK

c1ccc(-c2noc(COc3ccc4c(c3)OCO4)n2)cc1
AC50 (HeLa): 339 µM (active)

CC[N+](C)(CC)CCC(c1ccccc1)C1CCCCC1 (stereo unspecified)
AC50 (INS1): 233 µM (active)
IC50 [1]: 4.65 µM (active)
IC50 (Protein Wnt-3a): 39 µM (inactive)

O=C(Nc1ccc(Cl)c(Cl)c1)Nc1ccccc1O
AC50 [2]: 5.67 µM (active)
AC50 (HeLa): 49.7 µM (active)

CCCCC(CC)CNCC(CC)CCCC (stereo unspecified)
AC50 [3]: 10 µM (inconclusive)

CCCCN1C(=O)/C(=C/C=C2\SCCN2C)SC1=S
AC50 (HeLa): 39.1 µM (active)

CS(=O)(=O)Nc1ccc(-c2cc(/C=C3\SC(N)=NC3=O)cnc2O)cc1
AC50 [4]: 0.265 µM (active)

NNC(=O)c1cc(-c2cc(F)c(F)cc2F)[nH]n1
IC50 [5]: > 10 µM (inconclusive)
IC50 [6]: 0.316 µM (active)

COc1ccccc1NS(=O)(=O)c1ccc(Cl)c(NC(=O)C(C)N2C(=O)c3ccccc3C2=O)c1 (stereo unspecified)
IC50 (Aminopeptidase N): 26.9 µM (active)

O=C(Nc1cccc(Cl)c1)Nc1nccs1
EC50 [7]: > 160 µM (inactive)
EC50 [8]: 1.17 µM (active)
AC50 [4]: 8.46 µM (active)

CCN1C(=O)/C(=C2/Sc3ccccc3N2CC)S/C1=N\c1nc[nH]n1
AC50 [4]: 1.04 µM (active)

c1ccc(CSCc2ccccc2)cc1
AC50 [3]: 31.6 µM (inconclusive)

NC(=O)c1cc(Br)cc2c3c([nH]c12)CCCC3
IC50 [9]: 12.5 µM (not active)
AC50 [4]: 9.32 µM (active)

O=C(O)/C=C/c1ccc(/C=C/C(=O)O)cc1
AC50 [3]: 79.4 µM (inconclusive)

CNc1ccc(/C=C(\CCC(=O)O)c2nc3ccccc3s2)cc1[N+](=O)[O-]
IC50 (Aminopeptidase N): 43.3 µM (active)

CN1CCN(c2ccc3ccccc3n2)CC1
AC50 [3]: 35.5 µM (inconclusive)

Cc1c(-c2ccccc2)n[nH]c1C(=O)O
IC50 [5]: > 100 µM (not active)
IC50 [6]: > 100 µM (inactive)

C[C@H](Cc1ccc(O)c(O)c1)[C@@H](C)Cc1ccc(O)c(O)c1 [MASOPROCOL]
AC50 (Cytochrome P450 2C19): 15.8 µM (inconclusive)
AC50 (Cytochrome P450 2D6): 39.8 µM (inconclusive)
AC50 (Cytochrome P450 1A2): 25.1 µM (inconclusive)
AC50 [3]: 35.5 µM (inconclusive)
AC50 (Cytochrome P450 3A4): inconclusive

COc1ccc(NC(=O)/C(C#N)=C/c2ccc(Br)o2)cc1
IC50 [1]: 5.43 µM (active)
CC50 [10]: 27.4 µM (active)

CCCCC(=O)NC(c1ccc([N+](=O)[O-])cc1)c1c(O)ccc2ccccc12 (stereo unspecified)
CC50 (Vero): 9.36 µM (active)

O=C1OCC/C1=C\c1ccc(O)cc1
IC50 (Large T antigen): 17.4 µM (active)
AC50 [4]: 0.585 µM (active)
IC50 [11]: 28.9 µM (active)

Cn1c(SCC(=O)c2ccc(O)c(O)c2)nnc1-c1ccccc1
IC50 [6]: 93.4 µM (active)
